Measured values from article PMC7681098 (Theranostics, 2021).
Like-named read-outs stand apart in the source and are kept apart here.

Experiments:
FLT3 [1] = molecular target: T1, FLT3 (Homo sapiens, UniProt P36888); assay: Biolayer interferometry (BLI) binding assay; details: ForteBio Octet, 0.3 nM to 1000 nM
T1 construct: The intracellular domain of FLT3 (residues 571-994) was cloned into pMal-c2X; MBP (N); made in house; host or cells: E. coli BL21
Method: The intracellular domain of FLT3 (residues 571-994) was cloned into pMal-c2X containing an N-terminal MBP-tag with a TEV protease cleavage site. The recombinant vector was transformed into E. coli. BL21. Expression and purification of recombinant FLT3 were performed as described previously [25]-[27].
(§1) All studies were performed with the Super Streptavidin (SSA) biosensors (CA, USA). All binding experiments were performed according to the manufacturer's instructions. For the cellular thermal shift assay (CETSA), experiments were performed as described previously.
(§2) A concentration range from 0.3 nM to 1000 nM was defined (Figure 1B). […] CETSA has been used to identify FLT3-LT-171-861 interactions in live cell settings. […] We first verified that the inhibitor could stabilize FLT3 against denaturation using Western blot. […] An obvious thermal shift of the melting curve was detected in the LT-171-861-treated sample (Figure 1C). […] Accordingly, we identified 53 °C as the optimal temperature for isothermal […] fingerprint (ITDRF) CETSA.
(A) Chemical structure of LT-171-861. […] Data were then fitted to obtain KD value. […] Data were first normalized by setting the highest and lowest value in each set to 100% and 0% respectively. […] Cell viability was evaluated by MTT assay respectively. The IC50 values were calculated using nonlinear regression.

FLT3 [2] = molecular target: FLT3 (Homo sapiens, UniProt P36888); assay: Cellular thermal shift assay (CETSA / ITDRF CETSA) in MV4-11 cells; assay type: binding
Method: as §1, §2
(A) Chemical structure of LT-171-861. […] Data were then fitted to obtain KD value. […] Data were first normalized by setting the highest and lowest value in each set to 100% and 0% respectively. Data were obtained in the presence of the LT-171-861 (blue circle) as positive the control and DMSO (red square) as the negative control. All experiments were performed at three independent occasions and data are given as the mean ± SD. […] Cell viability was evaluated by MTT assay respectively. The IC50 values were calculated using nonlinear regression.

c-Src = molecular target: T2, c-Src (Homo sapiens, UniProt P12931); assay: Kinase inhibition assay (Reaction Biology); assay type: biochemical
T2 construct: purchased Reaction Biology Corporation (PA, USA)
T2 sequence (P12931 whole entry): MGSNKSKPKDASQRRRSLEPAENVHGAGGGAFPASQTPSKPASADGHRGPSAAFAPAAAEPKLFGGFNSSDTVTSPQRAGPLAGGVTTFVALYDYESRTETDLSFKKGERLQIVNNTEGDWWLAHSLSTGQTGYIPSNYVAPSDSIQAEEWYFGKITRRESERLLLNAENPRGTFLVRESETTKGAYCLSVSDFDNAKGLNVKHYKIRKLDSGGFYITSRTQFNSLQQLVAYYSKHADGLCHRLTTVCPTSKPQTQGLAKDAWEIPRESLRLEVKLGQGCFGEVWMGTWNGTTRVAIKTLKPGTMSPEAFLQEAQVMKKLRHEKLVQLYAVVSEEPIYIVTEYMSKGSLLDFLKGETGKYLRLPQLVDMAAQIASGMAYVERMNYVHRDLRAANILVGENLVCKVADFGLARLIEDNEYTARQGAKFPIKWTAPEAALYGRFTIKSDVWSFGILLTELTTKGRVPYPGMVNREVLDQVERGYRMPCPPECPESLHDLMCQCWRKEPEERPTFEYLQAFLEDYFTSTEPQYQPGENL

FGFR1 = molecular target: T3, FGFR1 (Homo sapiens, UniProt P11362); assay: Kinase inhibition assay (Reaction Biology); assay type: biochemical
T3 construct: purchased Reaction Biology Corporation (PA, USA)
T3 sequence (P11362 22-822): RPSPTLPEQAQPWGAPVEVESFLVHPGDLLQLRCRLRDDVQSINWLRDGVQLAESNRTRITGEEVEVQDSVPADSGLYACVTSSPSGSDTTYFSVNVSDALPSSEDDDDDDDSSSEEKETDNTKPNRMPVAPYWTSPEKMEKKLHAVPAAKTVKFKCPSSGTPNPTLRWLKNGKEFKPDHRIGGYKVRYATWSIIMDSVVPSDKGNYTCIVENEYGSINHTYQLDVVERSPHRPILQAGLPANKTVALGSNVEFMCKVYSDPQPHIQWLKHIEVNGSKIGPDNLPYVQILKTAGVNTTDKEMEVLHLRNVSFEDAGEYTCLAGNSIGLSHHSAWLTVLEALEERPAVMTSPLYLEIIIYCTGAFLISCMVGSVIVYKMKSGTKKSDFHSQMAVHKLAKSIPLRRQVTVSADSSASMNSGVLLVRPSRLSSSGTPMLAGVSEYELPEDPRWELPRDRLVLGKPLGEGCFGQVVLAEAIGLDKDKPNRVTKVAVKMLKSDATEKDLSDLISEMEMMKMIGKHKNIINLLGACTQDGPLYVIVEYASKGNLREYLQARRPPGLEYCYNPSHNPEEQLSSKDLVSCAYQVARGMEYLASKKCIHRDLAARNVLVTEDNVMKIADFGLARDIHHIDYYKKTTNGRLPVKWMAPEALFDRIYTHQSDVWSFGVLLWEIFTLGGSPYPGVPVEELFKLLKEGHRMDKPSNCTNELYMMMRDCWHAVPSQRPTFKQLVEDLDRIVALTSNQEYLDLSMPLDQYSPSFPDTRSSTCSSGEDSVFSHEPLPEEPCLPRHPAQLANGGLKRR

FLT1/VEGFR1 = molecular target: T4, FLT1/VEGFR1 (Homo sapiens, UniProt P17948); assay: Kinase inhibition assay (Reaction Biology); assay type: biochemical
T4 construct: purchased Reaction Biology Corporation (PA, USA)
T4 sequence (P17948 27-1338): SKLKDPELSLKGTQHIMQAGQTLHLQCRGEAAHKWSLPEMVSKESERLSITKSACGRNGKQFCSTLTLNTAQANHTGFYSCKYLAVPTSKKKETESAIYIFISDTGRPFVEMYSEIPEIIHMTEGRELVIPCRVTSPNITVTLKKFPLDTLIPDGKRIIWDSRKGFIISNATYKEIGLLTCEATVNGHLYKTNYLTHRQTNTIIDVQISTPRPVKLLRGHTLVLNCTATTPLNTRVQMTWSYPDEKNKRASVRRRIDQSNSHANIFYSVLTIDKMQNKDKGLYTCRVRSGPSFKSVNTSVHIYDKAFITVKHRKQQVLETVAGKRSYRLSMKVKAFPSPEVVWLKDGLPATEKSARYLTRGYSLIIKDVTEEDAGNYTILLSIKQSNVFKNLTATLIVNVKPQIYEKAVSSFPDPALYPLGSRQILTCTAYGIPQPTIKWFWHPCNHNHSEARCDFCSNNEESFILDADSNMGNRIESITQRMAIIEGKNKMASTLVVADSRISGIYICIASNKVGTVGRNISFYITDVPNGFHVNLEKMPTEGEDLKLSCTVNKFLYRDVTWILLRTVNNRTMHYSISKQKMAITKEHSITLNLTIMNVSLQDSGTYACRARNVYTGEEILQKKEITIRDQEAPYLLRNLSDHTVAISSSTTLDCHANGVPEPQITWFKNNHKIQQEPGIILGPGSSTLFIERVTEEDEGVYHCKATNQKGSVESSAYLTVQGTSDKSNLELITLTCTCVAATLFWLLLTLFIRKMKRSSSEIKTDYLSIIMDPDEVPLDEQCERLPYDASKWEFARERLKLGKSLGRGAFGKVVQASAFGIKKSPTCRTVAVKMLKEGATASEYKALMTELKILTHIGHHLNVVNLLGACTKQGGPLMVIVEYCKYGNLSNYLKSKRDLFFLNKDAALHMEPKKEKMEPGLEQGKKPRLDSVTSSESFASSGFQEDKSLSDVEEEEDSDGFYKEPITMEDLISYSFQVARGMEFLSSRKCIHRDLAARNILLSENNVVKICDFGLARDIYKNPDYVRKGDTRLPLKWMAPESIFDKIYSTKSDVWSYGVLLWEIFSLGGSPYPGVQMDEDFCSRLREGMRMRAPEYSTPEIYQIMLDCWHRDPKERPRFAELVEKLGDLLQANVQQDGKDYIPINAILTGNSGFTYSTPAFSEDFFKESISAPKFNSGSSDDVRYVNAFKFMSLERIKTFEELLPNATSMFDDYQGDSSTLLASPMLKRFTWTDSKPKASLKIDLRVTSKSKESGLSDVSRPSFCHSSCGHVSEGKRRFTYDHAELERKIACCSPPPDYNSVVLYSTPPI

FLT3 [3] = molecular target: T5, FLT3 (Homo sapiens, UniProt P36888); assay: Kinase inhibition assay (Reaction Biology); assay type: biochemical
T5 construct: purchased Reaction Biology Corporation (PA, USA)

FLT3 (D835Y) = molecular target: T6, FLT3 (D835Y) (Homo sapiens, UniProt P36888, D835Y); assay: Kinase inhibition assay (Reaction Biology); assay type: biochemical
T6 construct: purchased Reaction Biology Corporation (PA, USA)

FLT4/VEGFR3 = molecular target: T7, FLT4/VEGFR3 (Homo sapiens, UniProt P35916); assay: Kinase inhibition assay (Reaction Biology); assay type: biochemical
T7 construct: purchased Reaction Biology Corporation (PA, USA)
T7 sequence (P35916 25-1363): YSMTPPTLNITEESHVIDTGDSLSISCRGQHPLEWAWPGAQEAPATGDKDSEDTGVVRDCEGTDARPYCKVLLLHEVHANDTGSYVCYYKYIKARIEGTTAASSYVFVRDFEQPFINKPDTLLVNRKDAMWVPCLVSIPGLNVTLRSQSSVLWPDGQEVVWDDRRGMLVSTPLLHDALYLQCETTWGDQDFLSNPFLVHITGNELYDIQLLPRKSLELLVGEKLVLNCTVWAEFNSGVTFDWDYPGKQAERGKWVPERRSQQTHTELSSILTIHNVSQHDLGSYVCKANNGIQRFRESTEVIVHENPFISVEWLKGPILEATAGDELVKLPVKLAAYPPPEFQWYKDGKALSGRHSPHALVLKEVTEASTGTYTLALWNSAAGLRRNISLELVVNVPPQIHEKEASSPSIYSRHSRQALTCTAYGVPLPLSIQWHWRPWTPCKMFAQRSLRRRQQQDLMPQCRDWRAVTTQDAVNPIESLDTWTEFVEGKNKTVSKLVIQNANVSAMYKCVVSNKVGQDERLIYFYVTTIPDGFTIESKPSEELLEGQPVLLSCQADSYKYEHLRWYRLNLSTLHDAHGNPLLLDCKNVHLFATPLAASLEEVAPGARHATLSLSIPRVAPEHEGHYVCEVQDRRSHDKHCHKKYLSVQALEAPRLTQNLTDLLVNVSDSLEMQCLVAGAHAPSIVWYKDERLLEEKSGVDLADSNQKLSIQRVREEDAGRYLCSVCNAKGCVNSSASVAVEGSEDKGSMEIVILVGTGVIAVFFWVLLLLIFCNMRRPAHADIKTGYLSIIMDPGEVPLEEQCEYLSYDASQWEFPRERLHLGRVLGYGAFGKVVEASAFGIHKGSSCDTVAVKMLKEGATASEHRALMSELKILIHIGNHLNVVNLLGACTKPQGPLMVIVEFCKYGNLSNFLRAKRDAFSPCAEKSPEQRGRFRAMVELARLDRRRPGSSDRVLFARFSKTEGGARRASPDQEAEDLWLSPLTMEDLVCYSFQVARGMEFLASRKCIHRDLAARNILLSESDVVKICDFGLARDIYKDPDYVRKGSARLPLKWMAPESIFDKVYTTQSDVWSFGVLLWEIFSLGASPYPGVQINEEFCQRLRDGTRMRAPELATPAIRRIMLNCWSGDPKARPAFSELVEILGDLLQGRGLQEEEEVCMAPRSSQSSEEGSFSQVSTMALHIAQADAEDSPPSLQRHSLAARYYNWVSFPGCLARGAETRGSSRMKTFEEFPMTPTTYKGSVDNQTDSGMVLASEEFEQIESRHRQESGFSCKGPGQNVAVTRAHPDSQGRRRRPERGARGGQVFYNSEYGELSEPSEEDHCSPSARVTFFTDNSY

JAK1 = molecular target: T8, JAK1 (Homo sapiens, UniProt P23458); assay: Kinase inhibition assay (Reaction Biology); assay type: biochemical
T8 construct: purchased Reaction Biology Corporation (PA, USA)

JAK2 = molecular target: T9, JAK2 (Homo sapiens, UniProt O60674); assay: Kinase inhibition assay (Reaction Biology); assay type: biochemical
T9 construct: purchased Reaction Biology Corporation (PA, USA)
T9 sequence (O60674 whole entry): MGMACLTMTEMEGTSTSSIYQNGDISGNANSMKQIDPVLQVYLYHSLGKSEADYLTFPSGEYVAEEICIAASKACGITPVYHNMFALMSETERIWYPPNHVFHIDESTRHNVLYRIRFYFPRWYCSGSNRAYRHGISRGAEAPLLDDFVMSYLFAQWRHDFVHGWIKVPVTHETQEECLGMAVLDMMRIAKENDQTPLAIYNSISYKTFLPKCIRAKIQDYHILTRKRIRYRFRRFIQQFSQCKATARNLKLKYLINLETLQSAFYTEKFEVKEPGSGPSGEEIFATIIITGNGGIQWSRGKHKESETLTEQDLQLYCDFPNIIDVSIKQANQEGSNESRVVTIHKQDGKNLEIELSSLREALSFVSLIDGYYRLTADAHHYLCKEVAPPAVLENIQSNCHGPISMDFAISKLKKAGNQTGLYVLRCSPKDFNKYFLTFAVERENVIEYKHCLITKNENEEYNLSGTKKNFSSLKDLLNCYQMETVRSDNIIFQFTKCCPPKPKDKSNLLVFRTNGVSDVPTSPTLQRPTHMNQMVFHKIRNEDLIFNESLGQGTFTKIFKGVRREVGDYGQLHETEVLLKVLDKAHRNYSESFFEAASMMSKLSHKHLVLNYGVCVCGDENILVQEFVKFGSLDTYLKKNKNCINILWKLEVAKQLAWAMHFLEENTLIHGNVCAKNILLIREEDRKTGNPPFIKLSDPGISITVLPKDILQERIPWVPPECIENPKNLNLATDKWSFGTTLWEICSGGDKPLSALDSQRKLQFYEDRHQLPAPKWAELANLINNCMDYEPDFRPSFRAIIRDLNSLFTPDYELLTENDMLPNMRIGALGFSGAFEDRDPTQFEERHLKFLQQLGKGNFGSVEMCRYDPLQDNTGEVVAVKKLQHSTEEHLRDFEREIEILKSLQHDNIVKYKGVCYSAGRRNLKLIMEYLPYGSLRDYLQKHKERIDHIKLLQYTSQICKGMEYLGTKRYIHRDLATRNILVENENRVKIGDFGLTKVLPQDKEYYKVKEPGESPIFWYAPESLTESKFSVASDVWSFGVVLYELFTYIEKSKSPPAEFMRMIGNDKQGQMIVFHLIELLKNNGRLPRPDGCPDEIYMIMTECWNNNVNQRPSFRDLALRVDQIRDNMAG

JAK3 = molecular target: T10, JAK3 (Homo sapiens, UniProt P52333); assay: Kinase inhibition assay (Reaction Biology); assay type: biochemical
T10 construct: purchased Reaction Biology Corporation (PA, USA)

[4] = system: BaF3 cells with FLT3-ITD/D835Y; assay: Cell viability of transformed BaF3 cells; assay type: cell-based, murine
Method: (§3) Lentivirus packaging and construction of transformed BaF3 cells were performed as described previously. […] Supernatants were collected and used to infect BaF3 cells, and transduced BaF3 cells were selected with puromycin (1 μg/ml) to obtain stably transformed cells.
(§4) The conditional medium (CM) was prepared from the supernatant of HS-5 cell culture for 5 days under normal culture conditions. At the indicated time point, cell viability was evaluated by MTT assay.

[5] = system: BaF3 cells with FLT3-ITD/F691L; assay: Cell viability of transformed BaF3 cells; assay type: cell-based, murine; details: Mus musculus, read-out: BaF3 cells with FLT3 mutants IC50 ITD-F691L
Method: as §3, §4

[6] = system: BaF3 cells with FLT3-ITD/Y842C; assay: Cell viability of transformed BaF3 cells; assay type: cell-based, murine; details: Mus musculus, read-out: BaF3 cells with FLT3 mutants IC50 ITD-Y842C
Method: as §3, §4

[7] = system: MV4-11 cells and MOLM13 cells; assay: Subcutaneous xenograft model; assay type: in vivo, BALB/c nude mice
Method: According to previously described, [31], BALB/c nude mice were subcutaneously inoculated with MV4-11 cells (5×10^6) and MOLM13 cells (5×10^6). […] Tumor volume and body weight were measured with the caliper twice weekly. Tumor volumes were calculated based on: tumor volume=length×width^2/2.
LT-171-861 was administered every two days in xenograft mice. […] Tumor-eliminated mice were monitored for an additional 20 days after dosing was halted.
Data were shown as mean±SD. […] Data were shown as mean±SD. (C) An engrafted tumor model was used to evaluate in vivo antitumor activity. The NOD/SCID mice were intravenously inoculated with MV4-11 cells. […] Log-rank testing was used to compare survival curves among treatment groups. […] (D) Apoptotic assays in engraft model were evaluated by TUNEL assay and cell proliferative activity was measured by Ki67 assay. Images were acquired at ×40 magnification. (E) BALB/c nude mice were subcutaneously inoculated with MV4-11 cells (5×10^6) and bodyweight of each mouse was recorded every other day. (F) Representative photo of tumors from BALB/c nude mice which were inoculated with MV4-11 cells. (G) BALB/c nude mice were subcutaneously inoculated with BaF3 cells bearing FLT3-ITD-N676D (n=6) and FLT3-ITD-F691L (n=6) respectively. […] (H) BALB/c mice were intravenously inoculated with cells used in (G). […] Log-rank testing was used to compare survival curves among treatment groups. […] (I) Representative photos of spleens dissected from mice in (H) inoculated with BaF3 cells bearing FLT-3-ITD-F691L.

## CN1CCN(Cc2ccc(NC(=O)c3n[nH]cc3Nc3ncnc4[nH]ccc34)cc2)CC1 [LT-171-861]
FLT3 [1]
  Kd: 3.31 nM
FLT3 [2]; 1 h, 53 °C, read-out: fitted Kd value (ITDRF CETSA)
  Kd: 78.5 nM
FLT3 [2]; LT-171-861 10 µM 1 h, 49.11 °C without LT-171-861
  apparent aggregation temperature (Tagg) for FLT3: 52.91 °C
c-Src
  IC50: 72 nM
FGFR1
  IC50: 20 nM
FLT1/VEGFR1
  IC50: 5.6 nM
FLT3 [3]
  IC50: < 1 nM
FLT3 [3]; 10 μM ATP, 10-dose IC50 mode
  IC50: 0.234 nM
FLT3 (D835Y)
  IC50: < 1 nM
FLT3 (D835Y); 10 μM ATP, 10-dose IC50 mode
  IC50: 0.132 nM
FLT4/VEGFR3
  IC50: 1.24 nM
JAK1
  IC50: 55 nM
JAK2
  IC50: 33.8 nM
JAK3
  IC50: 32.6 nM
[4]; BaF3 FLT3-ITD-D835Y
  IC50 lower than that of sorafenib in cells bearing ITD-D835Y mutations: ~16 fold
[4]; Mus musculus, BaF3, cell viability, read-out: BaF3 cells with FLT3 mutants IC50 ITD-D835Y
  IC50: 57.2 nM
[5]
  IC50: 7.65 nM
[6]
  IC50: 18.8 nM
[7]; 10 mg/kg intravenous every two days, 20 or 24-day treatment
  tumor growth in xenograft models: complete tumor regression was achieved
[7]; MV4-11 cell line xenograft model
  bodyweight during dosing: no significant weight suppression
[7]; MV4-11 cell line xenograft model, end of experiment
  H&E staining in liver, heart, spleen, lung and kidney: no significant damage
[7]; monitored for an additional 20 days
  tumor regrowth after dosing was halted: No tumor regrowth was observed
